Results taken from patent US20060058268A1, “Compounds and methods for treating diabetic vascular diseases” (priority 2004, published 2006).

How the values were obtained:
[1] = test system: cells; format: cell-based; set-up: unit not given beside the values
Experimental: (§1) The plates are incubated at 37° C., 5% CO2 overnight (approximately 16 hours). The next day the plates are checked under the microscope to see if there are any visual signs of toxicity. Records are made of any cell death, debris, or morphology changes, as well as insoluble compounds (particulate or turbity).

[2] = test system: VCAM-1; experiment: VCAM-1 assay with ELISA readout (Examples 5-6); format: cell-based; details: for IC50: TNF added with compound, incubated overnight (approximately 16 hours); for VCAM-1 inhibition at [μM] / inhibition at 50 µM: at 50 μM
Experimental: Two to four confluent P150 plates are trypsinized and the cells transferred to a 50 mL conical centrifuge tube. The cells are pelleted, resuspended, and counted using the trypan blue exclusion method.
Cells are resuspended at a concentration of 36,000 cells/mL and 1 mL is aliquoted per well.
Cells are split into 24 well tissue culture plates. The cells in each well should be approximately 90-95% confluent by the following day. Cells should not be older than passage 8.
Compounds are initially screened at 50 μM and 10 μM. A 50 mM stock solution for each compound is prepared in culture medium. The stock solution is diluted to 5 mM and 1 mM. When 10 μL of the 5 mM solution is added to the well (1 mL medium/well), the final concentration will be 50 μM. Adding 10 μL of the 1 mM solution to the well will give a final concentration of 10 μM.
Compounds which will not go into solution in culture medium are resuspended in DMSO at a concentration of 25 mM. The stock solution is then diluted to the final concentration in culture medium. The old medium is aspirated and 1 mL of the new medium with the compound is added. For example, if the final concentration is 50 µM, the 2 μL of the 25 mM stock is added per mL of culture medium. The […] solution is diluted for lower concentrations.
The compounds are added to the plate (each compound is done in duplicate). One plate is done for VCAM expression and one plate is done for ICAM expression.
Immediately after the compounds are added, TNF is added to each well. 100 units/mL TNF is usually added to each well. Since each lot of TNF varies in the number of units, each new lot is titrated to determine the optimum concentration. Therefore this concentration will change. If 100 units/mL is being used, dilute the TNF to 10 units/μL and add 10 μL to each well.
as §1
In order to assess MCP-1, the media (500 μL) is saved and frozen at −70° C. Wash cells once with roughly 1 ml/well of Hanks Balance Salt Solution (HBSS) or PBS. Gently empty the wash solution and then tap the plate onto paper towels. Add either 250 μL/well of HBSS+5% FCCS to the plank (no primary antibody wells) or 250 μL/well of primary antibody diluted in HBSS+5% FCS. Incubate for 30 minutes at 37° C. Wash the wells twice with 0.5 mL/well HBSS or PBS and gently tap the plates onto paper towels after the last wash. Add 250 μL/well of HRP-conjugated second antibody diluted in HBSS+5% FCS to every well including the blank wells (no primary antibody). Incubate at 37° C. for 30 minutes. Wash the wells four times with 0.5 mL/well HBSS or PBS and gently tap the plates onto paper towels after the last wash. Add 250 μL/well of substrate solution. Incubate at room temperature in the dark until there is adequate color development (blue). Note the length of time incubation was performed (typically 15-30 minutes). Add 75 μL/well stopper solution (8N sulfuric acid), and read at 450 nm.

Compound: CC(C)(C)c1cc(S(=O)(=O)Cc2ccc([N+](=O)[O-])cc2)cc(C(C)(C)C)c1O [2,6-di-tert-butyl-4-(sulfonyl-(4′-nitrobenzyl))phenol]
- LD50 [1]: 100
- IC50 [2]: 40 µM

Compound: CC(C)(C)c1cc(SCc2ccc([N+](=O)[O-])cc2[N+](=O)[O-])cc(C(C)(C)C)c1O [2,6-di-tert-butyl-4-thio(2′,4′-dinitrobenzyl)phenol]
- LD50 [1]: 400
- IC50 [2]: 8 µM

Compound: CN(C)CCCSc1cc(C(C)(C)C)c(O)c(C(C)(C)C)c1 [2,6-di-tert-butyl-4-thio(3′-(dimethylamino)propyl))phenol]
- LD50 [1]: 100
- VCAM-1 inhibition at [μM] [2]: 30% at 50

Compound: CC(C)(C)c1cc(SCc2cccc([N+](=O)[O-])c2)cc(C(C)(C)C)c1O [2,6-di-tert-butyl-4-thio(3′-nitrobenzyl)phenol]
- LD50 [1]: 200
- IC50 [2]: 13 µM

Compound: CC(C)(C)c1cc(SCc2ccc(C(=O)O)cc2)cc(C(C)(C)C)c1O [2,6-di-tert-butyl-4-thio(4′(methyl)benzoic acid)phenol]
- LD50 [1]: >100
- IC50 [2]: > 50 µM

Compound: CC(C)(C)c1cc(SCc2ccc(CCO)cc2)cc(C(C)(C)C)c1O [2,6-di-tert-butyl-4-thio(4′-(methyl)phenylethyl alcohol))phenol]
- LD50 [1]: 50
- IC50 [2]: 15 µM

Compound: CC(=O)Oc1ccc(CSc2cc(C(C)(C)C)c(O)c(C(C)(C)C)c2)cc1 [2,6-di-tert-butyl-4-thio(4′-acetoxybenzyl)phenol]
- LD50 [1]: 75
- IC50 [2]: 18 µM

Compound: CN(C)S(=O)(=O)c1ccc(CSc2cc(C(C)(C)C)c(O)c(C(C)(C)C)c2)cc1 [2,6-di-tert-butyl-4-thio(4′-methyl-N,N-dimethylbenzene-sulfonamide)phenol]
- LD50 [1]: 350
- IC50 [2]: 20 µM

Compound: CC(C)(C)c1cc(SCc2ccc([N+](=O)[O-])cc2)cc(C(C)(C)C)c1O [2,6-di-tert-butyl-4-thio(4′-nitrobenzyl)phenol]
- LD50 [1]: 200
- IC50 [2]: 10 µM

Compound: CC(C)(C)c1cc(SCCc2ccc([N+](=O)[O-])cc2)cc(C(C)(C)C)c1O [2,6-di-tert-butyl-4-thio(4′-nitrophenethyl)phenol]
- LD50 [1]: 0.4
- IC50 [2]: 15 µM

Compound: CCCCC(OC(C)=O)Sc1cc(C(C)(C)C)c(O)c(C(C)(C)C)c1 (centres unmarked) [2,6-di-tert-butyl-4-thio((1′-(acetoxy))pentyl)phenol]
- LD50 [1]: 100

Compound: CC(C)(C)c1cc(SCc2ccc(C(=O)O)o2)cc(C(C)(C)C)c1O [2,6-di-tert-butyl-4-thio((2′-furancarboxylic acid)-5-methyl)phenol]
- LD50 [1]: 400
- IC50 [2]: 40 µM

Compound: CC(C)(C)c1cc(SCCCC(=O)O)cc(C(C)(C)C)c1O [2,6-di-tert-butyl-4-thio(butanoic acid)phenol]
- LD50 [1]: 200
- IC50 [2]: 75 µM

Compound: CC(C)(C)c1cc(SCc2ccc(CC(=O)O)cc2)cc(C(C)(C)C)c1O [2,6-di-tert-butyl-4-thio-(4′(methyl)phenylacetic acid)) phenol]
- LD50 [1]: 200
- IC50 [2]: 80 µM

Compound: CC(C)(C)c1cc(SCc2ccc(C(F)(F)F)cc2)cc(C(C)(C)C)c1O [(2,6-di-tert-butyl-4-thio(4′-(trifluoromethyl)benzyl)phenol]
- LD50 [1]: 300
- IC50 [2]: 5 µM

Compound: CC(C)(Sc1cc(C(C)(C)C)c(O)c(C(C)(C)C)c1)Sc1cc(C(C)(C)C)c(OC(=O)CCCC(=O)O)c(C(C)(C)C)c1 [Pentanedioic acid mono[4-[[1-[[3,5-bis(1,1-dimethylethyl)-4-hydroxyphenyl]thio]-1-methylethyl]thio]-2,6-bis(1,1-dimethylethyl)phenyl] ester]
- IC50 ([2]; 16 h): 8.7 µM

Compound: CC(C)(Sc1cc(C(C)(C)C)c(O)c(C(C)(C)C)c1)Sc1cc(C(C)(C)C)c(OCc2ccc([N+](=O)[O-])cc2)c(C(C)(C)C)c1 [Phenol, 4-[[1-[3,5-bis(1,1-dimethylethyl)4-[(4-nitrophenyl)methoxy]phenyl]thio]-1-methylethyl]thio]2,6-bis(1,1-dimethylethyl)-]
- LD50 [1]: >100
- VCAM-1 inhibition at [μM] [2]: 30% at 50

Compound: CCOCC(O)COc1c(C(C)(C)C)cc(SC(C)(C)Sc2cc(C(C)(C)C)c(O)c(C(C)(C)C)c2)cc1C(C)(C)C (centres unmarked) [Phenol, 4-[[1-[[3,5-bis(1,1-dimethylethyl)-4-(3-ethoxy-2-hydroxypropoxy)phenyl]thio]-1-methylethyl]thio]-2,6-bis(1,1-dimethylethyl)-]
- IC50 ([2]; 16 h): 75 µM

Compound: CC(C)(Sc1cc(C(C)(C)C)c(O)c(C(C)(C)C)c1)Sc1cc(C(C)(C)C)c(OCCCCO)c(C(C)(C)C)c1 [Phenol, 4-[[1-[[3,5-bis(1,1-dimethylethyl)-4-(4-hydroxybutoxy)phenyl]thio]-1-methylethyl]thio]-2,6-bis(1,1-dimethylethyl)-]
- IC50 ([2]; 16 h): 125 µM

Compound: CC(C)(Sc1cc(C(C)(C)C)c(O)c(C(C)(C)C)c1)Sc1cc(C(C)(C)C)c(OC=CCO)c(C(C)(C)C)c1 [Phenol, 4-[[1-[[3,5-bis(1,1-dimethylethyl)-4-[[3-hydroxy-1-propenyl)oxy]phenyl]thio]-1-methylethyl]thio]-2,6-bis(1,1-dimethylethyl)-]
- IC50 ([2]; 16 h): 55 µM

Compound: CC(C)(Sc1cc(C(C)(C)C)c(O)c(C(C)(C)C)c1)Sc1cc(C(C)(C)C)c(OCCCCN)c(C(C)(C)C)c1 [Phenol, 4-[[1-[[4-(4-aminobutoxy)-3,5-bis(1,1-dimethylethyl)phenyl]thio]-1-methylethyl]thio]2,6-bis(1,1-dimethylethyl)-]
- IC50 ([2]; 16 h): 8 µM
- IC50 [2]: 9 µM

Compound: CC(C)(Sc1ccc(OCCCCN)cc1)Sc1cc(C(C)(C)C)c(O)c(C(C)(C)C)c1 [Phenol, 4-[[1-[[4-(4-aminobutoxy)phenyl]thio]-1-methylethyl]thio]-2,6-bis(1,1-dimethylethyl)-]
- IC50 ([2]; 16 h): 5 µM

Compound: CN(C)c1ccc(CCOc2c(C(C)(C)C)cc(SC(C)(C)Sc3cc(C(C)(C)C)c(O)c(C(C)(C)C)c3)cc2C(C)(C)C)cc1 [Phenol, 4-[[1-[[4-[2-[4-(dimethylamino)phenyl]ethoxy]-3,5-bis(1,1-dimethylethyl)phenyl]thio]-1-methylethyl]thio]-2,6-bis(1,1-dimethylethyl)-]
- IC50 ([2]; 16 h): 55 µM

Compound: CN(C)CCCOc1c(C(C)(C)C)cc(SC(C)(C)Sc2cc(C(C)(C)C)c(O)c(C(C)(C)C)c2)cc1C(C)(C)C [Phenol, 4-[[1-[[4-[3-(dimethylamino)propoxy]-3,5-bis(1,1-dimethylethyl)phenyl]thio]-1-methylethyl]thio]-2,6-bis(1,1-dimethylethyl)-]
- inhibition at 50 µM [2]: 22%

Compound: CC1(C)OC2OC(COc3c(C(C)(C)C)cc(SC(C)(C)Sc4cc(C(C)(C)C)c(O)c(C(C)(C)C)c4)cc3C(C)(C)C)C3OC(C)(C)OC3C2O1 [α-D-Galactopyranose, 6-O-[4-[[1-[[3,5-bis(1,1-dimethylethyl)-4-hydroxyphenyl]thio]-1-methylethyl]thio]-2,6-bis(1,1-dimethylethyl)phenyl]-1,2:3,4-bis-O-(1-methylethylidene)]
- IC50 [2]: 45 µM

Compound: CC(C)(Sc1cc(C(C)(C)C)c(O)c(C(C)(C)C)c1)Sc1cc(C(C)(C)C)c(OC[C@H]2O[C@@H](O)[C@H](O)[C@@H](O)[C@@H]2O)c(C(C)(C)C)c1 [β-D-Glucopyranose, 6-O-[4-[[1-[[3,5-bis(1,1-dimethylethyl)-4-hydroxyphenyl]thio]-1-methylethyl]thio]-2,6-bis(1,1-dimethylethyl)phenyl]-]
- inhibition at 50 µM [2]: 30%

Compound: Butanedioic acid, (1-methylethylidine)bis[thio[2,6-bi(1,1-dimethylethyl)-4,1-phenylene}}ester
- LD50 [1]: 25
- IC50 [2]: > 50 µM

Compound: Butanedioic acid, mono[4-[[1-[[3,5-bis(1,1-dimethylethyl)-4-methoxyphenyl]thio]1-methylethyl]thio]-2,6-bis(1,1-dimethylethyl)phenyl] ester
- IC50 [2]: > 50 µM

Compound: Oxiranemethanol, α-[[[3-[[4-[[1-[[3,5-bis(1,1-dimethylethyl)-4-hydroxyphenyl]thio]-1-methylethyl]thio]-2,6-bis(1,1-dimethylethyl)phenoxy]methyl]oxiranyl]methoxy]methyl]-
- IC50 [2]: 60 µM

Compound: Pentanedioic acid, (1-methylethylidene)bis(thio{2,6-bis(1,1-dimethylethyl)-4,1-phenylene)]ester
- IC50 [2]: > 50 µM
